≈ marks a conversion by molar mass, not a printed value.
Experiments:
[1] = system: human-derived osteosarcoma cell line MG-63; assay: Cytotoxicity evaluation, relative cell metabolic activity (CellTiter-Blue), MG-63; assay type: cell-based; conditions: 24 h, mean ± SD; for viability at 10 µM / viability at 25 µM / viability at 50 µM: Homo sapiens, read-out: Relative metabolic activity of MG-63 cells; for viability at 10 µM: MG-63, 10 µM; for viability at 25 µM: MG-63, 25 µM; for viability at 50 µM: MG-63, 50 µM
Description: (§1) All target compounds were studied to determine their cytotoxic activity at various concentrations of each compound (10–50 µM) against human-derived osteosarcoma cell line MG-63 (ATCC, CRL-1427) and mouse-derived preosteoblast cell line MC3T3-E1 (ATCC, CRL-2593) (Table 4 and Figures S1-S4 in the Supporting Information). For the comparison, naturally occurring betulinic, oleanolic (1b) and ursolic (1c) acids as well as their 3-oxo analogs 2a-c and doxorubicin, were also subjected to the cytotoxicity tests.
(§2) Cytotoxicity of betulinic acid, ursolic acid and oleanolic acid derivatives was evaluated using human-derived osteosarcoma cell line MG63 (ATCC, CRL-1427) and mouse-derived preosteoblast cell line MC3T3-E1 (ATCC CRL-2593). Before conducting the experiments, both cell lines were continuously cultured according to the ATCC product sheet instructions. Briefly, both cell lines were expanded in α-MEM medium supplemented with 10% FBS and 1% pen-strep and maintained at 37 °C in a humidified atmosphere with 5% CO2.
(§3) Each cell line was plated at a concentration of 1 × 10^4 cells/well in 96-well plate. The plates were incubated for 24 h to allow cell attachment and growth. Bioactive substances were solubilized in methanol prior further dilution in cell culture media. Following the cell incubation period, the culture media was removed and the dilutions of active substance (10, 25 and 50 µM) in cell culture media were added. The culture medium only and its dilutions with methanol solution respective to the bioactive substance concentrations were used as the controls. […] Cells were treated with bioactive substance solutions for 24 h. After 24 h incubation, relative cell metabolic activity was assessed using CellTiter-Blue® (CTB) analysis (Promega, JAV). […] was measured at 590 nm using microplate reader (Infinite® 200 PRO, Tecan, USA). The relative cell metabolic activity was calculated for each bioactive substance concentration as well as for the controls. […] Statistically significant differences between sample groups are assessed using a one-way ANOVA test and then corrected using the Šídák multiple comparison test. Statistically significant differences were considered to be those with a P-values less than 0.05 (p < 0.05).
as §2, with “10 %” for “10%”, “1 %” for “1%”, “5 %” for “5%”
(§4) […]

[2] = Water solubility determination by quantitative 1H-NMR in D2O; assay type: physicochemical; conditions: D2O adjusted with NaOD, aqueous buffer, thermodynamic from solid; qNMR in D2O, pH 8.0-8.5 (NaOD), room temperature, potassium hydrogen phthalate external standard
Description: The obtained PCT-derived sodium phosphonates were subjected to water solubility tests (Table 3). For this purpose, we used a quantitative ^1H-NMR approach in D2O, using potassium hydrogen phthalate as an external standard (for experimental details see Supporting Information). The presence of the basic forms of phosphonates[80] was ensured by the careful addition of NaOD, maintaining pH 8.0–8.5 during the quantification, which is 2–3 units higher than the pKa of phosphonic acid disalt. […] This is by at least two to three orders of magnitude higher than the reported solubilities of the parent natural triterpenic acids. […] Indeed, phosphonic acids are more acidic and easier ionizable than carboxylic acids. This ionic character helps to increase the aqueous solubility as exemplified by here described compounds.
Water solubility determination
To suspension of PCT phosphonate sample (10 mg) in D2O (500 µL) 0.8% solution of NaOD in D2O was added dropwise until pH = 8-8.5 (<100 µL). Obtained suspension was sonified in ultrasonic bath for 10 min. Undissolved particles were separated by centrifugation. Clear D2O solution was carefully transferred to NMR tube equipped with external standard vial.
Formula (1) was used to determine the solubility of PCT sample in the D2O.
[…]
SolPCT - solubility of PCT sample in D2O at room temperature (mg/mL)
IPCT - integral value of PCT signal of choice
Ist - integral value of external standard signal of choice
NPCT - number of integrated protons of PCT
Nst - number of integrated protons of external standard
V - volume of used D2O (mL) mst - mass of external standard (mg)
Mbet - molecular weight of PCT (g•mol−1)
Mst - molecular weight of external standard - potassium hydrogen phthalate (204.22 […]
Wst - assay of the external standard (99.5 %)

[3] = system: mouse-derived preosteoblast cell line MC3T3-E1; assay: Cytotoxicity evaluation, relative cell metabolic activity (CellTiter-Blue), MC3T3-E1; assay type: cell-based; conditions: 24 h, mean ± SD; for viability at 10 µM / viability at 25 µM / viability at 50 µM: Mus musculus, read-out: Relative metabolic activity of MC3T3-E1 cells; for viability at 10 µM: MC3T3-E1, 10 µM; for viability at 25 µM: MC3T3-E1, 25 µM; for viability at 50 µM: MC3T3-E1, 50 µM
Description: as §1, §2, §3
as §2, with “10 %” for “10%”, “1 %” for “1%”, “5 %” for “5%”
as §4

[4] = cited from earlier work

Row | Compound | viability at 10 µM [1] [%] | viability at 25 µM [1] [%] | viability at 50 µM [1] [%] | solubility at 10 min [2] [µg/mL] | viability at 10 µM [3] [%] | viability at 25 µM [3] [%] | viability at 50 µM [3] [%] | Solubility in distilled water ([4]; distilled water) [µg/mL] | Aqueous solubility at neutral pH [4] [µg/mL] | Solubility in sodium phosphate solution ([4]; pH 11.4, sodium phosphate solution) [µg/mL] | Aqueous solubility at pH 11.8 [4] [µg/mL] | Aqueous solubility (in words) ([4]; compared with oleanolic and betulinic acids) | Relative metabolic activity of MG-63 cells ([1]; 10 µM) | Relative metabolic activity of MG-63 cells ([1]; 25 µM) | Relative metabolic activity of MG-63 cells ([1]; 50 µM) | Relative metabolic activity of MC3T3-E1 cells ([3]; 10 µM) | Relative metabolic activity of MC3T3-E1 cells ([3]; 25 µM) | Relative metabolic activity of MC3T3-E1 cells ([3]; 50 µM)
1 | CC1(C)CCC2(C(=O)OCP(=O)([O-])[O-])CCC3(C)C(=CCC4C5(C)CCC(=O)C(C)(C)C5CCC43C)C2C1.[Na+].[Na+] (stereo not drawn) [7b] | 113 ± 8 | 132 ± 5 | 119 ± 5 | 8000 | 131 ± 8 | 150 ± 4 | 104 ± 5 | – | – | – | – | – | – | – | – | – | – | –
2 | CC1CCC2(C(=O)OCP(=O)([O-])[O-])CCC3(C)C(=CCC4C5(C)CCC(=O)C(C)(C)C5CCC43C)C2C1C.[Na+].[Na+] (stereo not drawn) [7c] | 96 ± 4 | 98 ± 4 | 112 ± 3 | 26000 | 91 ± 6 | 90 ± 3 | 94 ± 5 | – | – | – | – | – | – | – | – | – | – | –
3 | C=C(C)C1CCC2(C(=O)OCP(=O)([O-])[O-])CCC3(C)C(CCC4C5(C)CCC(O)C(C)(C)C5CCC43C)C12.[Na+].[Na+] (stereo not drawn) [8a] | 158 ± 5 | 124 ± 25 | 159 ± 17 | 3000 | 108 ± 5 | 119 ± 4 | 101 ± 5 | – | – | – | – | – | – | – | – | – | – | –
4 | CC1(C)CCC2(C(=O)OCP(=O)([O-])[O-])CCC3(C)C(=CCC4C5(C)CCC(O)C(C)(C)C5CCC43C)C2C1.[Na+].[Na+] (stereo not drawn) [8b] | – | – | – | 7000 | – | – | – | – | – | – | – | – | – | – | – | – | – | –
5 | C=C(C)[C@@H]1CC[C@]2(C(=O)O)CC[C@]3(C)[C@H](CC[C@@H]4[C@@]5(C)CC[C@H](O)C(C)(C)[C@@H]5CC[C@]43C)[C@@H]12 [Betulinic acid] | 74 ± 16 | 91 ± 14 | 112 ± 8 | – | 76 ± 7 | 56 ± 4 | 97 ± 7 | 0.021 (≈ 0.046 µM) | < 0.1 | 40.1 (≈ 87.8 µM) | 42.1 | – | – | – | – | – | – | –
6 | C=C(C)[C@@H]1CC[C@]2(C(=O)O)CC[C@]3(C)[C@H](CC[C@@H]4[C@@]5(C)CCC(=O)C(C)(C)[C@@H]5CC[C@]43C)[C@@H]12 [Betulonic acid (2a), Betulonic acid] | 114 ± 2 | 96 ± 4 | 88 ± 8 | – | 139 ± 6 | 170 ± 5 | 122 ± 1 | – | – | – | – | – | – | – | – | – | – | –
7 | COc1cccc2c1C(=O)c1c(O)c3c(c(O)c1C2=O)C[C@@](O)(C(=O)CO)C[C@@H]3O[C@H]1C[C@H](N)[C@H](O)[C@H](C)O1 [Doxorubicin] | 41 ± 2 | 19 ± 1 | 16 ± 2 | – | 72 ± 7 | 60 ± 3 | 53 ± 3 | – | – | – | – | – | – | – | – | – | – | –
8 | CC1(C)CC[C@]2(C(=O)O)CC[C@]3(C)C(=CC[C@@H]4[C@@]5(C)CC[C@H](O)C(C)(C)[C@@H]5CC[C@]43C)[C@@H]2C1 [Oleanolic acid (1b), Oleanolic acid] | 77 ± 14 | 158 ± 13 | 129 ± 11 | – | 104 ± 7 | 97 ± 8 | 96 ± 5 | – | < 0.1 | – | 99.5 | – | – | – | – | – | – | –
9 | CC1(C)CC[C@]2(C(=O)O)CC[C@]3(C)C(=CC[C@@H]4[C@@]5(C)CCC(=O)C(C)(C)[C@@H]5CC[C@]43C)[C@@H]2C1 [Oleanonic acid (2b), Oleanonic acid] | 151 ± 8 | 160 ± 3 | 103 ± 18 | – | 110 ± 1 | 99 ± 5 | 49 ± 12 | – | – | – | – | – | – | – | – | – | – | –
10 | C[C@H]1[C@H](C)CC[C@]2(C(=O)O)CC[C@]3(C)C(=CC[C@@H]4[C@@]5(C)CC[C@H](O)C(C)(C)[C@@H]5CC[C@]43C)[C@H]12 [Ursolic acid (1c), Ursolic acid] | 66 ± 3 | 64 ± 3 | 28 ± 4 | – | 106 ± 5 | 83 ± 5 | 99 ± 8 | – | – | – | – | similarly low aqueous solubility | – | – | – | – | – | –
11 | C[C@H]1[C@H](C)CC[C@]2(C(=O)O)CC[C@]3(C)C(=CC[C@@H]4[C@@]5(C)CCC(=O)C(C)(C)[C@@H]5CC[C@]43C)[C@H]12 [Ursonic acid (2c), Ursonic acid] | 76 ± 8 | 67 ± 4 | 67 ± 4 | – | 74 ± 2 | 107 ± 7 | 72 ± 9 | – | – | – | – | – | – | – | – | – | – | –
12 | C=C(C)[C@@H]1CC[C@]2(COCP(=O)([O-])[O-])CC[C@]3(C)[C@H](CC[C@@H]4[C@@]5(C)CC[C@H](OCP(=O)([O-])[O-])C(C)(C)[C@@H]5CC[C@]43C)[C@@H]12.[Na+].[Na+].[Na+].[Na+] [compound 12, Sodium (lup-20(29)-en-(3 S)-3,28-diylbis(oxymethylene))bis(phosphonate)] | 97 ± 8 | 89 ± 5 | 94 ± 4 | 3000 | 90 ± 7 | 93 ± 6 | 92 ± 4 | – | – | – | – | – | – | – | – | – | – | –
13 | Sodium (3-oxo-(17R)-17-28-norlup-20(29)-en)-2-oxoethyl-phosphonate [7a] | – | – | – | – | – | – | – | – | – | – | – | – | 1.10 ± 0.04 | 1.30 ± 0.06 | 1.09 ± 0.04 | 1.41 ± 0.01 | 1.27 ± 0.05 | 1.13 ± 0.03
